Measurements: ChEMBL document CHEMBL1201862, “PubChem BioAssay data set” (2004)
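A five-concentration, 48-hour dose response in 96-well plates underlies each endpoint, interpolated linearly between surrounding concentrations. At the GI50, growth is halved.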 Activity calls are given as the source filed them. Rule as the data show it: active = GI50 up to about 1.1 µM and inactive = higher.

Key:
Test in all cases: growth of human tumour cells (NCI), 48 h
SN12C = test system: SN12C
SK-OV-3 = test system: SK-OV-3
M14 = test system: M14
SW-620 = test system: SW-620
MDA-MB-435 = test system: MDA-MB-435
UACC-257 = test system: UACC-257
KM12 = test system: KM12
LOX IMVI = test system: LOX IMVI
TK-10 = test system: TK-10
HCT-15 = test system: HCT-15
HT-29 = test system: HT-29
T47D = test system: T47D
SF-268 = test system: SF-268
HL-60 = test system: HL-60
K562 = test system: K562
OVCAR-8 = test system: OVCAR-8
NCI-H226 = test system: NCI-H226
HOP-92 = test system: HOP-92
SK-MEL-5 = test system: SK-MEL-5
U-251 = test system: U-251

Row | SMILES | GI50 (SN12C) | GI50 (SK-OV-3) | GI50 (M14) | GI50 (SW-620) | GI50 (MDA-MB-435) | GI50 (UACC-257) | GI50 (KM12) | GI50 (LOX IMVI) | GI50 (TK-10) | GI50 (HCT-15) | GI50 (HT-29) | GI50 (T47D) | GI50 (SF-268) | GI50 (HL-60) | GI50 (K562) | GI50 (OVCAR-8) | GI50 (NCI-H226) | GI50 (HOP-92) | GI50 (SK-MEL-5) | GI50 (U-251)
1 | CC1(C)CC(C#Cc2ccccc2)CC(C)(C)N1O | 15.1 µM (inactive) | 27.1 µM (inactive) | 19.1 µM (inactive) | 19.6 µM (inactive) | 21.6 µM (inactive) | 16.6 µM (inactive) | 17.3 µM (inactive) | 15.5 µM (inactive) | 20.4 µM (inactive) | 14.9 µM | 14.2 µM (inactive) | 16 µM (inactive) | 20.7 µM (inactive) | 14.8 µM (inactive) | 22.8 µM (inactive) | 20.7 µM (inactive) | 20.9 µM (inactive) | 15.2 µM (inactive) | 16.1 µM (inactive) | 23.9 µM (inactive)
2 | O=C(c1cc(Cl)cc(Cl)c1)N1CCN(C(=O)c2cc(Cl)cc(Cl)c2)C1=S | 11.9 µM (inactive) | 16.3 µM (inactive) | 13.2 µM (inactive) | 12.2 µM (inactive) | 11.7 µM (inactive) | 13.3 µM (inactive) | 11.7 µM (inactive) | 3.31 µM (inactive) | 10.7 µM (inactive) | 12.6 µM | 20.2 µM (inactive) | 7.06 µM (inactive) | 13.1 µM (inactive) | 3.31 µM (inactive) | 8.39 µM (inactive) | 18.6 µM (inactive) | 23.7 µM (inactive) | 6.65 µM (inactive) | 16.1 µM (inactive) | 13.1 µM (inactive)
3 | CCCNC(=O)Cn1c(C)cc2ccccc21 | > 100 µM (inactive) | > 100 µM (inactive) | > 100 µM (inactive) | > 100 µM (inactive) | > 100 µM (inactive) | > 100 µM (inactive) | > 100 µM (inactive) | > 100 µM (inactive) | > 100 µM (inactive) | > 100 µM | > 100 µM (inactive) | > 100 µM (inactive) | > 100 µM (inactive) | > 100 µM (inactive) | > 100 µM (inactive) | > 100 µM (inactive) | > 100 µM (inactive) | > 100 µM (inactive) | > 100 µM (inactive) | > 100 µM (inactive)
4 | COP(=O)(CC(=O)C1OC(OCc2ccccc2)C(OCc2ccccc2)C(OCc2ccccc2)C1OCc1ccccc1)OC (stereo not given) | 3 µM (inactive) | 27.8 µM (inactive) | 10.9 µM (inactive) | 12.8 µM (inactive) | 5.38 µM (inactive) | 6.81 µM (inactive) | 4.16 µM (inactive) | 11 µM (inactive) | 15.3 µM (inactive) | 4.83 µM | 6.19 µM (inactive) | 4.3 µM (inactive) | 12.8 µM (inactive) | 4.39 µM (inactive) | 4.31 µM (inactive) | 5.87 µM (inactive) | 4.91 µM (inactive) | 10.4 µM (inactive) | 4.23 µM (inactive) | 6.37 µM (inactive)
5 | COc1cc(OC)c(-c2cc(=O)c3c(OC)c(OC)c(OC)c(OC)c3o2)cc1OC | > 100 µM (inactive) | > 100 µM (inactive) | > 100 µM (inactive) | > 100 µM (inactive) | > 100 µM (inactive) | > 100 µM (inactive) | 74.1 µM (inactive) | > 100 µM (inactive) | 97.5 µM (inactive) | > 100 µM | > 100 µM (inactive) | 8.18 µM (inactive) | > 100 µM (inactive) | 13.6 µM (inactive) | > 73.1 µM (inactive) | 31.3 µM (inactive) | > 100 µM (inactive) | 11.6 µM (inactive) | 46.8 µM (inactive) | 64 µM (inactive)
6 | Cn1nc(-c2ccccc2)nc1[N+](=O)[O-] | > 10 µM (inactive) | > 10 µM (inactive) | > 10 µM (inactive) | > 10 µM (inactive) | > 10 µM (inactive) | > 10 µM (inactive) | > 10 µM (inactive) | > 10 µM (inactive) | > 10 µM (inactive) | > 10 µM | > 10 µM (inactive) | > 10 µM (inactive) | > 10 µM (inactive) | > 10 µM (inactive) | > 10 µM (inactive) | > 10 µM (inactive) | > 10 µM (inactive) | > 10 µM (inactive) | > 10 µM (inactive) | > 10 µM (inactive)
7 | Cn1cncc1CC1COC(=O)C1C(O)c1ccccc1 (stereo not given) | > 100 µM (inactive) | > 100 µM (inactive) | > 100 µM (inactive) | > 100 µM (inactive) | > 100 µM (inactive) | > 100 µM (inactive) | > 100 µM (inactive) | > 100 µM (inactive) | > 100 µM (inactive) | > 100 µM | > 100 µM (inactive) | > 100 µM (inactive) | > 100 µM (inactive) | > 100 µM (inactive) | > 100 µM (inactive) | > 100 µM (inactive) | > 100 µM (inactive) | > 100 µM (inactive) | > 100 µM (inactive) | > 100 µM (inactive)
8 | CC(=O)N1C2=CCCC2(C)c2ccccc21 (stereo not given) | 70.5 µM (inactive) | > 100 µM (inactive) | > 100 µM (inactive) | > 100 µM (inactive) | > 100 µM (inactive) | 68.7 µM (inactive) | 64.9 µM (inactive) | > 100 µM (inactive) | > 100 µM (inactive) | > 100 µM | 63.5 µM (inactive) | 79.3 µM (inactive) | > 100 µM (inactive) | 23.7 µM (inactive) | 33.8 µM (inactive) | > 100 µM (inactive) | > 100 µM (inactive) | 26.9 µM (inactive) | 41.1 µM (inactive) | > 100 µM (inactive)
9 | CCOC(=O)CCc1c(C(=O)OCC)[nH]c(/C=C2/NC(=O)C(C)=C2CC)c1C | 16.9 µM (inactive) | 34.7 µM (inactive) | 7.28 µM (inactive) | 23.2 µM (inactive) | 6.73 µM (inactive) | 10.1 µM (inactive) | 10.9 µM (inactive) | 8.18 µM (inactive) | 24.7 µM (inactive) | 3.47 µM | 10.4 µM (inactive) | 2.11 µM (inactive) | 10.2 µM (inactive) | 5.01 µM (inactive) | 0.0494 µM (active) | 31.9 µM (inactive) | 16.9 µM (inactive) | 14.1 µM (inactive) | 2.97 µM (inactive) | 11.2 µM (inactive)
10 | Cc1cccc(C(=O)O)c1CC1NCCC2c3ccccc3NC12 (stereo not given) | > 100 µM (inactive) | > 100 µM (inactive) | > 100 µM (inactive) | > 100 µM (inactive) | > 100 µM (inactive) | > 100 µM (inactive) | > 100 µM (inactive) | > 100 µM (inactive) | > 100 µM (inactive) | > 100 µM | > 100 µM (inactive) | > 100 µM (inactive) | > 100 µM (inactive) | > 100 µM (inactive) | > 100 µM (inactive) | > 100 µM (inactive) | > 100 µM (inactive) | > 100 µM (inactive) | > 100 µM (inactive) | > 100 µM (inactive)
11 | COc1cc(C[C@H]2C(=O)OC[C@@H]2Cc2ccc(OC)c(OC)c2)cc(OC)c1 | > 100 µM (inactive) | > 100 µM (inactive) | 93.8 µM (inactive) | 70.6 µM (inactive) | 55.7 µM (inactive) | 51.5 µM (inactive) | 51.6 µM (inactive) | 18.5 µM (inactive) | > 100 µM (inactive) | 53.3 µM | 33.2 µM (inactive) | 35.2 µM (inactive) | > 100 µM (inactive) | 37.2 µM (inactive) | 31.5 µM (inactive) | 98.4 µM (inactive) | > 100 µM (inactive) | 92.9 µM (inactive) | 16.8 µM (inactive) | 70.8 µM (inactive)
12 | Cc1c(/N=N/c2ccc(Cl)cc2)c(C)n(C2OC(CO)C(O)C(O)C2O)c(=S)c1C#N (stereo not given) | 15.5 µM (inactive) | 37.4 µM (inactive) | 20 µM (inactive) | > 100 µM (inactive) | 20.2 µM (inactive) | 24.2 µM (inactive) | 24.8 µM (inactive) | 17.3 µM (inactive) | 28.6 µM (inactive) | 23.8 µM | 32.7 µM (inactive) | 32.7 µM (inactive) | 16 µM (inactive) | 22.1 µM (inactive) | 16.7 µM (inactive) | 30.1 µM (inactive) | 25.3 µM (inactive) | 31.5 µM (inactive) | 8.45 µM (inactive) | 18.2 µM (inactive)
13 | C=CCOn1c(C=C)nc2ccc(C)cc21 | 16.3 µM (inactive) | 35.2 µM (inactive) | 16.5 µM (inactive) | 15.4 µM (inactive) | 13.6 µM (inactive) | 13.7 µM (inactive) | 17.3 µM (inactive) | 12.8 µM (inactive) | 13.6 µM (inactive) | 17 µM | 14.1 µM (inactive) | 10.7 µM (inactive) | 24 µM (inactive) | 5.01 µM (inactive) | 20.6 µM (inactive) | 23.6 µM (inactive) | 20.2 µM (inactive) | 34.9 µM (inactive) | 17.5 µM (inactive) | 12.5 µM (inactive)
14 | COc1cccc(C2c3cc4c(cc3OC(NNS(=O)(=O)c3ccc(C)cc3)C2C)OCO4)c1OC (stereo not given) | 3.2 µM (inactive) | 2.59 µM (inactive) | 3.59 µM (inactive) | 3.08 µM (inactive) | 3.57 µM (inactive) | 2.7 µM (inactive) | 3.3 µM (inactive) | 2.08 µM (inactive) | 4.46 µM (inactive) | 2.65 µM | 3.18 µM (inactive) | 3.44 µM (inactive) | 4.3 µM (inactive) | 1.42 µM (inactive) | 2.12 µM (inactive) | 27.4 µM (inactive) | 2.56 µM (inactive) | 2.15 µM (inactive) | 2.83 µM (inactive) | 2.62 µM (inactive)
